Test results taken from patent US20250206732A1, “COMPOUNDS AND METHODS FOR THE TARGETED DEGRADATION OF KRAS” (Arvinas Operations, Inc., priority 2022, published 2025).
Values belong to the compound of their own block, whether it stands above or below them.

Target: T1, AsPC-1 HiBiT-KRASG12D (Homo sapiens, UniProt P01116, G12D)
T1 construct: insert the HiBiT tag onto the N-terminus of one or more of the endogenous KRAS alleles; endogenous in cells; host or cells: AsPC-1 (ATCC CRL-1682), CRISPR-Cas9 knock-in clone, one tagged allele
T1 sequence (P01116 1-188 isoform P01116-2 G12D): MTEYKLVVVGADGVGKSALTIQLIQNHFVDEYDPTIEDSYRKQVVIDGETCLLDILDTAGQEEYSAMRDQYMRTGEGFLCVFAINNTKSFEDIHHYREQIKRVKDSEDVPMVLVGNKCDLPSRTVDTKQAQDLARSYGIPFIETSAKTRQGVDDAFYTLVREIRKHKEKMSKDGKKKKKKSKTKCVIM
Test: HiBiT degradation assay (G12D), AsPC-1 HiBiT-KRASG12D cells
Format: cell-based
Settings: 24 hours treatment; for Dmax: ASPC1, AsPC-1 HiBiT-KRASG12D cells, maximum degradation observed; for DC50: AsPC-1 HiBiT-KRASG12D cells, HiBiT luminescence
Procedure, shortened: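 Steps: treat HiBiT-KRASG12D AsPC-1 cells with compound for 24 hours; add alamar blue to 1× and incubate 4 hours to assess viability; wash with PBS; add HiBiT lytic detection reagent, incubate 45 minutes at room temperature; read luminescence. Viability fluorescence is normalized to DMSO wells.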

Compound: CCc1cccc2cc(O)cc(-c3ncc4c(N5CC6CCC(C5)N6)nc(OCCN5CCC(CCC6CN(c7cc([C@@H](C(=O)N8C[C@H](O)C[C@H]8C(=O)N[C@@H](C)c8ccc(-c9scnc9C)cc8)C(C)C)on7)C6)CC5)nc4c3F)c12 (single isomer, unassigned) [Compound 253, (2S,4R)-1-[(2R*)-2-(3-{3-[2-(1-{2-[(4-{3,8-diazabicyclo[3.2.1]octan-3-yl}-7-(8-ethyl-3-hydroxynaphthalen-1-yl)-8-fluoropyrido[4,3-d]pyrimidin-2-yl)oxy]ethyl}piperidin-4-yl)ethyl]azetidin-1-yl}-1,2-oxazol-5-yl)-3-methylbutanoyl]-4-hydroxy-N-[(1S)-1-[4-(4-methyl-1,3-thiazol-5-yl)phenyl]ethyl] pyrrolidine-2-carboxamide]
- Dmax: 20 to 60%
- DC50: 1000 to 3000 nM

- Dmax: 80 to 100%
- DC50: < 600 nM
Compound: CCc1cccc2cc(O)cc(-c3ncc4c(N5CCCCCC5)nc(OC[C@]56CCCN5[C@H](COC(=O)N5CCN(c7cc([C@H](C(=O)N8C[C@H](O)C[C@H]8C(=O)N[C@@H](C)c8ccc(-c9scnc9C)cc8)C(C)C)on7)[C@H](C)C5)CC6)nc4c3F)c12 [Compound 227, [(3S,8R)-8-[[4-(azepan-1-yl)-7-(8-ethyl-3-hydroxy-1-naphthyl)-8-fluoro-pyrido[4,3-d]pyrimidin-2-yl]oxymethyl]-1,2,3,5,6,7-hexahydropyrrolizin-3-yl]methyl (3R)-4-[5-[(1R)-1-[(2S,4R)-4-hydroxy-2-[[(1S)-1-[4-(4-methylthiazol-5-yl)phenyl]ethyl]carbamoyl]pyrrolidine-1-carbonyl]-2-methyl-propyl]isoxazol-3-yl]-3-methyl-piperazine-1-carboxylate]

Compound: CCc1cccc2cc(O)cc(-c3ncc4c(N5CC6CCC(C5)N6)nc(OCCC5CCN(CC6CN(c7cc([C@@H](C(=O)N8C[C@H](O)C[C@H]8C(=O)N[C@@H](C)c8ccc(-c9scnc9C)cc8)C(C)C)on7)C6)CC5)nc4c3F)c12 [Compound 219, (2S,4R)-1-[(2S)-2-(3-{3-[(4-{2-[(4-{3,8-diazabicyclo[3.2.1]octan-3-yl}-7-(8-ethyl-3-hydroxynaphthalen-1-yl)-8-fluoropyrido[4,3-d]pyrimidin-2-yl)oxy]ethyl}piperidin-1-yl)methyl]azetidin-1-yl}-1,2-oxazol-5-yl)-3-methylbutanoyl]-4-hydroxy-N-[(1S)-1-[4-(4-methyl-1,3-thiazol-5-yl)phenyl]ethyl]pyrrolidine-2-carboxamide]
- Dmax: 20 to 60%
- DC50: 1000 to 3000 nM

Compound: CCc1cccc2cc(O)cc(-c3ncc4c(N5CC6CCC(C5)N6)nc(OC[C@@]56CCCN5[C@H](CN5CCN(c7cc([C@H](C(=O)N8C[C@H](O)C[C@H]8C(=O)N[C@@H](C)c8ccc(-c9scnc9C)cc8)C(C)C)on7)CC5)CC6)nc4c3F)c12 [Compound 94, (2S,4R)-1-[(2R)-2-[3-(4-{[(3S,7aS)-7a-{[(4-{3,8-diazabicyclo[3.2.1]octan-3-yl}-7-(8-ethyl-3-hydroxynaphthalen-1-yl)-8-fluoropyrido[4,3-d]pyrimidin-2-yl)oxy]methyl}-hexahydro-1H-pyrrolizin-3-yl]methyl}piperazin-1-yl)-1,2-oxazol-5-yl]-3-methylbutanoyl]-4-hydroxy-N-[(1S)-1-[4-(4-methyl-1,3-thiazol-5-yl)phenyl]ethyl]pyrrolidine-2-carboxamide]
- Dmax: 80 to 100%
- DC50: < 600 nM

- DC50: > 3000 nM
Compound: CCc1cccc2cc(O)cc(-c3ncc4c(N5CC6CCC(C5)N6)nc(OCCN5CCC(CN6CC7(C6)CN(c6cc([C@@H](C(=O)N8C[C@H](O)C[C@H]8C(=O)N[C@@H](C)c8ccc(-c9scnc9C)cc8)C(C)C)on6)C7)CC5)nc4c3F)c12 [Compound 236]

Compound: CCc1cccc2cc(O)cc(-c3ncc4c(N5CC6CCC(C5)N6)nc(OCCN5CC(CC6CCN(c7cc([C@@H](C(=O)N8C[C@H](O)C[C@H]8C(=O)N[C@@H](C)c8ccc(-c9scnc9C)cc8)C(C)C)on7)CC6)C5)nc4c3F)c12 [Compound 234, (2S,4R)-1-[(2S)-2-(3-{4-[(1-{2-[(4-{3,8-diazabicyclo[3.2.1]octan-3-yl}-7-(8-ethyl-3-hydroxynaphthalen-1-yl)-8-fluoropyrido[4,3-d]pyrimidin-2-yl)oxy]ethyl}azetidin-3-yl)methyl]piperidin-1-yl}-1,2-oxazol-5-yl)-3-methylbutanoyl]-4-hydroxy-N-[(1S)-1-[4-(4-methyl-1,3-thiazol-5-yl)phenyl]ethyl] pyrrolidine-2-carboxamide]
- Dmax: 20 to 60%
- DC50: 1000 to 3000 nM

Compound: C#Cc1c(F)ccc2cc(O)cc(-c3ncc4c(N5CC6CCC(C5)N6)nc(OC[C@]56CCCN5[C@H](COC(=O)N5CC(Oc7cc([C@H](C(=O)N8C[C@H](O)C[C@H]8C(=O)N[C@@H](C)c8ccc(-c9scnc9C)cc8)C(C)C)on7)C5)CC6)nc4c3F)c12 [Compound 292]
- Dmax: 80 to 100%
- DC50: < 600 nM

Compound: CCc1cccc2cc(O)cc(-c3ncc4c(N5CC6CCC(C5)N6)nc(OC[C@]56CCCN5[C@H](COc5cc([C@@H](C(=O)N7C[C@H](O)C[C@H]7C(=O)N[C@@H](C)c7ccc(-c8scnc8C)cc7)C(C)C)on5)CC6)nc4c3F)c12 [Compound 324, (2S,4R)-1-[(2S)-2-(3-{[(3S,7aR)-7a-{[(4-{3,8-diazabicyclo[3.2.1]octan-3-yl}-7-(8-ethyl-3-hydroxynaphthalen-1-yl)-8-fluoropyrido[4,3-d]pyrimidin-2-yl)oxy]methyl}-hexahydro-1H-pyrrolizin-3-yl]methoxy}-1,2-oxazol-5-yl)-3-methylbutanoyl]-4-hydroxy-N-[(1S)-1-[4-(4-methyl-1,3-thiazol-5-yl)phenyl]ethyl]pyrrolidine-2-carboxamide]
- Dmax: 80 to 100%

Compound: CCc1cccc2cc(O)cc(-c3ncc4c(N5CC6CCC(C5)N6)nc(OC[C@]56CCCN5[C@H](COC(=O)N5CC(COc7cc([C@H](C(=O)N8C[C@H](O)C[C@H]8C(=O)N[C@@H](C)c8ccc(-c9scnc9C)cc8)C(C)C)on7)C5)CC6)nc4c3F)c12 [Compound 121, [(3S,7aR)-7a-{[(4-{3,8-diazabicyclo[3.2.1]octan-3-yl}-7-(8-ethyl-3-hydroxynaphthalen-1-yl)-8-fluoropyrido[4,3-d]pyrimidin-2-yl)oxy]methyl}-hexahydro-1H-pyrrolizin-3-yl]methyl 3-[({5-[(2R)-1-[(2S,4R)-4-hydroxy-2-{[(1S)-1-[4-(4-methyl-1,3-thiazol-5-yl)phenyl]ethyl]carbamoyl}pyrrolidin-1-yl]-3-methyl-1-oxobutan-2-yl]-1,2-oxazol-3-yl}oxy)methyl]azetidine-1-carboxylate]
- Dmax: 80 to 100%
- DC50: < 600 nM

Compound: CCc1cccc2cc(O)cc(-c3ncc4c(N5CC6CCC(C5)N6)nc(OCCN5CCC(F)(CN6CCN(c7cc([C@@H](C(=O)N8C[C@H](O)C[C@H]8C(=O)N[C@@H](C)c8ccc(-c9scnc9C)cc8)C(C)C)on7)[C@H](C)C6)CC5)nc4c3F)c12 [Compound 224, (2S,4R)-1-[(2S)-2-{3-[(2R)-4-[(1-{2-[(4-{3,8-diazabicyclo[3.2.1]octan-3-yl}-7-(8-ethyl-3-hydroxynaphthalen-1-yl)-8-fluoropyrido[4,3-d]pyrimidin-2-yl)oxy]ethyl}-4-fluoropiperidin-4-yl)methyl]-2-methylpiperazin-1-yl]-1,2-oxazol-5-yl}-3-methylbutanoyl]-4-hydroxy-N-[(1S)-1-[4-(4-methyl-1,3-thiazol-5-yl)phenyl]ethyl]pyrrolidine-2-carboxamide]
- Dmax: 20 to 60%
- DC50: 600 to 1000 nM

Compound: CCc1cccc2cc(O)cc(-c3ncc4c(N5CC6CCC(C5)N6)nc(OC[C@@]56CCCN5[C@H](COC(=O)N5CCN(c7cc([C@H](C(=O)N8C[C@H](O)C[C@H]8C(=O)N[C@@H](C)c8ccc(-c9scnc9C)cc8)C(C)C)on7)C[C@@H]5C)CC6)nc4c3F)c12 [Compound 325, [(3S,8S)-8-[[4-(3,8-diazabicyclo[3.2.1]octan-3-yl)-7-(8-ethyl-3-hydroxy-1-naphthyl)-8-fluoro-pyrido[4,3-d]pyrimidin-2-yl]oxymethyl]-1,2,3,5,6,7-hexahydropyrrolizin-3-yl]methyl (2S)-4-[5-[(1R)-1-[(2S,4R)-4-hydroxy-2-[[(1S)-1-[4-(4-methylthiazol-5-yl)phenyl]ethyl]carbamoyl]pyrrolidine-1-carbonyl]-isobutyl]isoxazol-3-yl]-2-methyl-piperazine-1-carboxylate]
- Dmax: 80 to 100%
- DC50: < 600 nM

Compound: CCc1cccc2cc(O)cc(-c3ncc4c(N5CC6CCC(C5)N6)nc(OCCN5CCC6(CC5)CN(c5cc([C@H](C(=O)N7C[C@H](O)C[C@H]7C(=O)N[C@@H](C)c7ccc(-c8ccnn8C)cc7)C(C)C)on5)C6)nc4c3F)c12 (relative stereo) [Compound 140, (2S,4R)-1-[(2R*)-2-[3-(7-{2-[(4-{3,8-diazabicyclo[3.2.1]octan-3-yl}-7-(8-ethyl-3-hydroxynaphthalen-1-yl)-8-fluoropyrido[4,3-d]pyrimidin-2-yl)oxy]ethyl}-2,7-diazaspiro[3.5]nonan-2-yl)-1,2-oxazol-5-yl]-3-methylbutanoyl]-4-hydroxy-N-[(1S)-1-[4-(1-methyl-1H-pyrazol-5-yl)phenyl]ethyl]pyrrolidine-2-carboxamide]
- Dmax: 80 to 100%
- DC50: < 600 nM

- DC50: > 3000 nM
Compound: CCc1cccc2cc(O)cc(-c3ncc4c(N5CC6CCC(C5)N6)nc(OC[C@]56CCCN5[C@@H](COc5cc([C@@H](C(=O)N7C[C@H](O)C[C@H]7C(=O)N[C@@H](C)c7ccc(-c8scnc8C)cc7)C(C)C)on5)CC6)nc4c3F)c12 [Compound 28, (2S,4R)-1-[(2S)-2-(3-{[(3R,7aR)-7a-{[(4-{3,8-diazabicyclo[3.2.1]octan-3-yl}-7-(8-ethyl-3-hydroxynaphthalen-1-yl)-8-fluoropyrido[4,3-d]pyrimidin-2-yl)oxy]methyl}-hexahydro-1H-pyrrolizin-3-yl]methoxy}-1,2-oxazol-5-yl)-3-methylbutanoyl]-4-hydroxy-N-[(1S)-1-[4-(4-methyl-1,3-thiazol-5-yl)phenyl]ethyl]pyrrolidine-2-carboxamide]
